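In this assay, cells in 96-well plates receive the compound at five concentrations for 48 hours. Endpoints are linearly interpolated between the surrounding concentrations. The concentration for 50% growth inhibition is given as GI50.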 The source made the active and inactive calls. No stated cut-off is given here; in the data, active = GI50 up to about 1.1 µM and inactive = higher.
Assays:
Assay in all cases: inhibition of tumour cell growth, NCI panel, 48 h
OVCAR-3 = test system: OVCAR-3
KM12 = test system: KM12
UACC-62 = test system: UACC-62
HCC 2998 = test system: HCC 2998
SK-MEL-28 = test system: SK-MEL-28
SW-620 = test system: SW-620
A498 = test system: A498
NCI-H23 = test system: NCI-H23
OVCAR-8 = test system: OVCAR-8
SF-295 = test system: SF-295
HL-60 = test system: HL-60
RPMI-8226 = test system: RPMI-8226
XF498 = test system: XF498
IGROV-1 = test system: IGROV-1
SK-OV-3 = test system: SK-OV-3
EKVX = test system: EKVX
OVCAR-4 = test system: OVCAR-4
MCF7 = test system: MCF7

Measured: GI50

O=C(/C=C/C1C(=O)NC(=O)NC1=O)CC(=O)C(=O)Nc1cc(Cl)c(Cl)cc1Cl
inactive: OVCAR-3 > 100 µM | KM12 > 100 µM | UACC-62 > 100 µM | HCC 2998 > 100 µM | SK-MEL-28 > 100 µM | SW-620 > 100 µM | A498 > 100 µM | NCI-H23 > 100 µM | OVCAR-8 > 100 µM | SF-295 > 100 µM | HL-60 > 100 µM | RPMI-8226 > 100 µM | XF498 > 100 µM | IGROV-1 > 100 µM | SK-OV-3 > 100 µM | EKVX > 100 µM | OVCAR-4 > 100 µM

O=C(O)CNS(=O)(=O)c1ccc(NC(=O)c2ccc([N+](=O)[O-])cc2)cc1
inactive: OVCAR-3 > 100 µM | KM12 > 100 µM | UACC-62 > 100 µM | HCC 2998 > 100 µM | SK-MEL-28 > 100 µM | SW-620 > 100 µM | A498 > 100 µM | NCI-H23 > 100 µM | OVCAR-8 > 100 µM | SF-295 > 100 µM | HL-60 > 100 µM | RPMI-8226 > 100 µM | XF498 > 100 µM | IGROV-1 > 100 µM | SK-OV-3 > 100 µM | EKVX > 100 µM | OVCAR-4 > 100 µM

CC1OC(OCC2OC(Oc3c(-c4ccc(O)cc4)oc4cc(O)cc(O)c4c3=O)C(OC3OC(C)C(O)C(O)C3O)C(O)C2O)C(O)C(O)C1O (stereo unspecified)
inactive: OVCAR-3 > 100 µM | KM12 > 100 µM | UACC-62 > 100 µM | HCC 2998 > 100 µM | SK-MEL-28 > 100 µM | SW-620 > 36.2 µM | A498 > 100 µM | NCI-H23 > 100 µM | OVCAR-8 > 100 µM | SF-295 > 100 µM | HL-60 > 100 µM | RPMI-8226 > 56.8 µM | XF498 > 100 µM | IGROV-1 > 100 µM | SK-OV-3 > 100 µM | EKVX > 100 µM | OVCAR-4 > 54.8 µM

C[C@H](NC(=O)OC1C2C=CC(O)C1CC2)c1ccccc1 (stereo partly specified)
inactive: OVCAR-3 > 100 µM | KM12 > 100 µM | UACC-62 > 100 µM | HCC 2998 > 100 µM | SK-MEL-28 > 100 µM | A498 > 100 µM | NCI-H23 > 100 µM | OVCAR-8 > 100 µM | SF-295 > 100 µM | HL-60 > 100 µM | RPMI-8226 22.4 µM | XF498 > 100 µM | IGROV-1 > 100 µM | SK-OV-3 > 100 µM | EKVX > 100 µM | OVCAR-4 > 100 µM

O=NN(CCCl)C(=O)N[C@H]1CC[C@@H](CC(=O)O)CC1
inactive: OVCAR-3 > 100 µM | KM12 > 100 µM | UACC-62 35.2 µM | MCF7 > 100 µM | HCC 2998 > 100 µM | SK-MEL-28 > 100 µM | SW-620 > 100 µM | A498 > 100 µM | NCI-H23 > 100 µM | OVCAR-8 > 100 µM | SF-295 67.5 µM | HL-60 38.3 µM | RPMI-8226 35.2 µM | XF498 > 100 µM | IGROV-1 > 100 µM | SK-OV-3 > 100 µM | EKVX > 100 µM | OVCAR-4 > 100 µM

CCOC(=O)C1=C(C)N(NC(=O)OC)C2(N)N(NC(=O)OC)C(C)=C(C(=O)OCC)C12C#N (stereo unspecified)
inactive: OVCAR-3 > 100 µM | KM12 > 100 µM | UACC-62 > 100 µM | HCC 2998 > 100 µM | SK-MEL-28 > 100 µM | SW-620 > 100 µM | A498 > 100 µM | OVCAR-8 > 100 µM | SF-295 > 100 µM | HL-60 > 100 µM | RPMI-8226 > 100 µM | XF498 > 100 µM | IGROV-1 > 100 µM | SK-OV-3 > 100 µM | EKVX > 100 µM | OVCAR-4 > 100 µM

Reference: ChEMBL document CHEMBL1201862, “PubChem BioAssay data set” (2004)
